The source of these data is patent publication US20250136606A1, “MODULATORS OF TRPML, THEIR COMPOSITIONS AND METHODS OF USE” (Caraway Therapeutics, Inc., priority 2021, published 2025).

pEC50: −log10 of the molar value. Where two headings read alike, the source gives them in different places. Bounds are passed on as bounds.

Common to all, as to format: cell-based
Assay [1] addresses T1, TRPML2 (Homo sapiens, UniProt Q8IZK6).
T1 construct: expressed in transfected cells
T1 sequence (Q8IZK6 1-566): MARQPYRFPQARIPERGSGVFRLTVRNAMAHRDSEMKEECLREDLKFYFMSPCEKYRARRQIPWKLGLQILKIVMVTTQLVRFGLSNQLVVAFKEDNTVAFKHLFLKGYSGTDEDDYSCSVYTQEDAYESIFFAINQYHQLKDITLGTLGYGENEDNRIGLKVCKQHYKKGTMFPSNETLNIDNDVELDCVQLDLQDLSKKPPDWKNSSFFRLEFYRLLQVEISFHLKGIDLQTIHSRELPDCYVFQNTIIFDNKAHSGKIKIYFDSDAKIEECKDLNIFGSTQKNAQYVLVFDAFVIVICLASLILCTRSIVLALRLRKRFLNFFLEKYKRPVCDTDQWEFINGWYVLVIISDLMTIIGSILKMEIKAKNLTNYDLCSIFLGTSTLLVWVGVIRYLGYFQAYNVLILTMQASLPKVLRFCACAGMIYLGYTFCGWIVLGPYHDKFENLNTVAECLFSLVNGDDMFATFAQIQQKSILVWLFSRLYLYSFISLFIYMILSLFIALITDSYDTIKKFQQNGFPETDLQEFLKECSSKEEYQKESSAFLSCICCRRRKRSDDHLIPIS
Kind of assay: Fluorescent TRPML2 assay (performed as for TRPML1, substituting the TRPML2 subtype). The method, boiled down:
(§1)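 Doxycycline-induced (0.5 ug/mL) HEK-293 Trex cells stably expressing surface-directed mutant channel were loaded with 1 micromolar Fluo4-AM, resuspended in Ringer's with 10 mM calcium and added to compound plates. Fluorescence (ex 480, em 540 nm) gave percent activity versus on-plate controls; EC50 by non-linear regression.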

The target in assay [2] is T2, TRPML3 (Homo sapiens, UniProt Q8TDD5).
T2 construct: expressed in transfected cells
T2 sequence (Q8TDD5 1-553): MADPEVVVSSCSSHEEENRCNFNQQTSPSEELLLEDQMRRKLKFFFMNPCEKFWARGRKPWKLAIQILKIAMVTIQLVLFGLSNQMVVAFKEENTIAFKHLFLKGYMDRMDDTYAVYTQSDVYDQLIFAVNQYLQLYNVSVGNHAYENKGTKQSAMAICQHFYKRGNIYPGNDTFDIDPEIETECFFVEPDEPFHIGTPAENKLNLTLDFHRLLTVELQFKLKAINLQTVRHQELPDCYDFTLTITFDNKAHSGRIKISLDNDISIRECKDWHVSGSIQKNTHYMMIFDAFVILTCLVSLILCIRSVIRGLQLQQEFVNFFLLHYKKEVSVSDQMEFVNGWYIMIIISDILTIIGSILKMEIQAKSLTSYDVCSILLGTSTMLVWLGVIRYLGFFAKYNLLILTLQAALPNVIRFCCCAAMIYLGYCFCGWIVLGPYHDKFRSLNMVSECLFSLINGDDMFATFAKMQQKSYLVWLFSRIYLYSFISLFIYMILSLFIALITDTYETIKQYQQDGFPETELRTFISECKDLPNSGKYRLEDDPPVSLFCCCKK
Description: Fluorescent TRPML3 assay (performed as for TRPML1, substituting the TRPML3 subtype). The method, boiled down:
as §1

Assay [3] addresses TRPML1 (Homo sapiens, UniProt Q9GZU1). Kind of assay: Fluorescent TRPML1 assay (Fluo4-AM calcium fluorescence in doxycycline-induced HEK-293 Trex cells). In a few lines: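 hTRPML1 (mutated for cell-surface expression) in HEK-293 Trex, dox 0.5 ug/mL o/n; Fluo4-AM 1 uM ~60 min, then ~60 min de-esterification, dark; modified Ringer's + 10 mM Ca. Cmpds 20 uM–6 nM final, half-log, n=3. Ex480/Em540; % activity vs ctrls; EC50 by nonlinear regression.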

Sequence of TRPML1 (Q9GZU1 whole entry L15A/L16A/L577A/L578A, form open): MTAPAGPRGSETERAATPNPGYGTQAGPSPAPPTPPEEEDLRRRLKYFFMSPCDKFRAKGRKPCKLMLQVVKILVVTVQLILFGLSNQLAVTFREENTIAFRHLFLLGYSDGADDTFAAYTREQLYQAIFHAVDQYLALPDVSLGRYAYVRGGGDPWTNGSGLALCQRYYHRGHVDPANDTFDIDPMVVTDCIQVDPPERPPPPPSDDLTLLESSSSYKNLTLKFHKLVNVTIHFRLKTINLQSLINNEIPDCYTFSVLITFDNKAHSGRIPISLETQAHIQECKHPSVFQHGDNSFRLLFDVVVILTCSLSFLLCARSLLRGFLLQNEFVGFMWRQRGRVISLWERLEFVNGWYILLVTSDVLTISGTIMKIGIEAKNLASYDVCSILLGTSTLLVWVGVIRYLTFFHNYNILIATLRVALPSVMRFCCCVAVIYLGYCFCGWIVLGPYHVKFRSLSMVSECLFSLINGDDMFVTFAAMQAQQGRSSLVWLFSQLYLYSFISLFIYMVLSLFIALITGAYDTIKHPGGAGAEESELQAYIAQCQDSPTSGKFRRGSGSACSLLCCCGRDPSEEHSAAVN

In general, pEC50 refers to −log10 of the EC50, conventionally taken in molar units. On to `Cc1nccnc1-c1cn(-c2ccc(F)c(F)c2)c2ncnc(N3C[C@@H](C)N(C(=O)OC(C)(C)C)C[C@@H]3C)c12` [Compound 180, tert-butyl (2R,5S)-4-(7-(3,4-difluorophenyl)-5-(3-methylpyrazin-2-yl)-7H-pyrrolo[2,3-d]pyrimidin-4-yl)-2,5-dimethylpiperazine-1-carboxylate], for which the pEC50 in assay [1] (fluorescent calcium assay) was 5.70 to 6.30; in assay [2] (fluorescent calcium assay), above 7.00; in assay [3] (fluorescent calcium assay) it was 6.30 to 7.00.
Turning to `COc1cc(-n2cc(C3CC3)c3c(N4CCN(C(=O)OC(C)(C)C)C[C@@H]4C)ncnc32)ccc1F` [Compound 317, tert-butyl (S)-4-(5-cyclopropyl-7-(4-fluoro-3-methoxyphenyl)-7H-pyrrolo[2,3-d]pyrimidin-4-yl)-3-methylpiperazine-1-carboxylate], the pEC50 in assay [1] (fluorescent calcium assay) is below 5.70; in assay [2] (fluorescent calcium assay), 6.30 to 7.00; in assay [3] (fluorescent calcium assay), 5.70 to 6.30.
With `CCOC(=O)N1C[C@H](C)N(c2ncnc3c2c(-c2ccccc2F)cn3-c2cc(C)ccn2)C[C@H]1C` [Compound 144, ethyl (2R,5S)-4-(5-(2-fluorophenyl)-7-(4-methylpyridin-2-yl)-7H-pyrrolo[2,3-d]pyrimidin-4-yl)-2,5-dimethylpiperazine-1-carboxylate], the pEC50 is 5.70 to 6.30 in assay [1] (fluorescent calcium assay), above 7.00 in assay [2] (fluorescent calcium assay) and above 7.00 in assay [3] (fluorescent calcium assay).
Take `C[C@H]1CN(C(=O)OC(C)(C)C)CCN1c1ncnc2c1c(-c1ccncc1)cn2-c1cc(F)cc(F)c1` [Compound 241, tert-butyl-(S)-4-(7-(3,5-difluorophenyl)-5-(pyridin-4-yl)-7H-pyrrolo[2,3-d]pyrimidin-4-yl)-3-methylpiperazine-1-carboxylate]: the figures for the pEC50 in assay [1] (fluorescent calcium assay), in assay [2] (fluorescent calcium assay) and in assay [3] (fluorescent calcium assay) were 5.70 to 6.30, 6.30 to 7.00 and 6.30 to 7.00, respectively.
On to `C[C@H]1CN(C(=O)OC(C)(C)C)CCN1c1ncnc2c1c(N1CCCC1)cn2-c1cc(Cl)cc(C#N)c1` [Compound 399, tert-butyl (S)-4-(7-(3-chloro-5-cyanophenyl)-5-(pyrrolidin-1-yl)-7H-pyrrolo[2,3-d]pyrimidin-4-yl)-3-methylpiperazine-1-carboxylate], for which the negative-log EC50 (pEC50) in assay [1] (fluorescent calcium assay) was 5.70 to 6.30; in assay [2] (fluorescent calcium assay), above 7.00; in assay [3] (fluorescent calcium assay), 6.30 to 7.00.
The like results for `C[C@@H]1CN(c2ncnc3c2c(-c2ccccc2)cn3-c2cccnc2)[C@@H](C)CN1C(=O)OC(C)(C)C` [Compound 169, tert-butyl (2R,5S)-2,5-dimethyl-4-(5-phenyl-7-(pyridin-3-yl)-7H-pyrrolo[2,3-d]pyrimidin-4-yl)piperazine-1-carboxylate] were, in that order, 5.70 to 6.30, above 7.00 and above 7.00.
The like results for `C[C@H]1CN(C(=O)OC(C)(C)C)CCN1c1ncnc2c1c(C1(C)CC1)cn2-c1cccc(C#N)c1` [Compound 402, tert-butyl (S)-4-(7-(3-cyanophenyl)-5-(1-methylcyclopropyl)-7H-pyrrolo[2,3-d]pyrimidin-4-yl)-3-methylpiperazine-1-carboxylate] were, in that order, 5.70 to 6.30, above 7.00 and above 7.00.
With `C[C@@H]1CN(c2ncnc3c2c(C(F)(F)F)cn3-c2cc(C#N)ccn2)[C@@H](C)CN1C(=O)OC1CCC1` [Compound 516, cyclobutyl (2R,5S)-4-(7-(4-cyanopyridin-2-yl)-5-(trifluoromethyl)-7H-pyrrolo[2,3-d]pyrimidin-4-yl)-2,5-dimethylpiperazine-1-carboxylate], the pEC50 in assay [1], in assay [2] and in assay [3] was above 7.00 each time.
Regarding `CC(C)(C)OC(=O)N1CCN(c2ncnc3c2c(-c2ccccn2)cn3-c2ccc(F)c(Cl)c2)CC1` [Compound 151, tert-butyl 4-(7-(3-chloro-4-fluorophenyl)-5-(pyridin-2-yl)-7H-pyrrolo[2,3-d]pyrimidin-4-yl)piperazine-1-carboxylate], the pEC50 in assay [1] (fluorescent calcium assay), in assay [2] (fluorescent calcium assay) and in assay [3] (fluorescent calcium assay) was 6.30 to 7.00 in each case.
Regarding `CC(C)c1cn(-c2cc(C#N)ccn2)c2ncnc(N3C[C@@H](C)N(C(=O)OC(C)(C)C)C[C@@H]3C)c12` [Compound 700, tert-butyl (2R,5S)-4-(7-(4-cyanopyridin-2-yl)-5-isopropyl-7H-pyrrolo[2,3-d]pyrimidin-4-yl)-2,5-dimethylpiperazine-1-carboxylate], the pEC50 in assay [1] was 6.30 to 7.00; in assay [2] it was above 7.00; in assay [3], above 7.00.
On to `C[C@H]1CN(C(=O)OC(C)(C)C)CCN1c1ncnc2c1c(C(C)(C)O)cn2-c1cc(C#N)ccn1` [Compound 484, tert-butyl (S)-4-(7-(4-cyanopyridin-2-yl)-5-(2-hydroxypropan-2-yl)-7H-pyrrolo[2,3-d]pyrimidin-4-yl)-3-methylpiperazine-1-carboxylate], for which the pEC50 in assay [1] (fluorescent calcium assay) is 6.30 to 7.00; in assay [2] (fluorescent calcium assay), above 7.00; in assay [3] (fluorescent calcium assay) it was above 7.00.
Turning to `CCOC(=O)N1CCN(c2ncnc3c2c(C2CC2)cn3-c2ccc(Cl)cc2)[C@@H](C)C1` [Compound 112, ethyl (S)-4-(7-(4-chlorophenyl)-5-cyclopropyl-7H-pyrrolo[2,3-d]pyrimidin-4-yl)-3-methylpiperazine-1-carboxylate], the pEC50 in assay [1] (fluorescent calcium assay) was 6.30 to 7.00; in assay [2] (fluorescent calcium assay) it was 5.70 to 6.30; in assay [3] (fluorescent calcium assay), 6.30 to 7.00.
Regarding `CC1CC1c1cn(-c2cc(C#N)ccn2)c2ncnc(N3CCN(C(=O)OC(C)(C)C)C[C@@H]3C)c12` (stereo partly drawn) [Compound 615, tert-butyl (3S)-4-(7-(4-cyanopyridin-2-yl)-5-(2-methylcyclopropyl)-7H-pyrrolo[2,3-d]pyrimidin-4-yl)-3-methylpiperazine-1-carboxylate], the pEC50 in assay [1], in assay [2] and in assay [3] was above 7.00 throughout.
With `C[C@H]1CN(C(=O)OC(C)(C)C(F)(F)F)CCN1c1ncnc2c1c(-c1cncnc1)cn2-c1cccc(C#N)c1` [Compound 336, 1,1,1-trifluoro-2-methylpropan-2-yl (S)-4-(7-(3-cyanophenyl)-5-(pyrimidin-5-yl)-7H-pyrrolo[2,3-d]pyrimidin-4-yl)-3-methylpiperazine-1-carboxylate], the pEC50 is below 5.70 in assay [1] (fluorescent calcium assay), above 7.00 in assay [2] (fluorescent calcium assay) and 6.30 to 7.00 in assay [3] (fluorescent calcium assay).
For `Cc1cn(-c2ccc(F)cc2)c2ncnc(N3CCN(C(=O)OC(C)(C)C)C[C@@H]3C)c12` [Compound 692, tert-butyl (S)-4-(7-(4-fluorophenyl)-5-methyl-7H-pyrrolo[2,3-d]pyrimidin-4-yl)-3-methylpiperazine-1-carboxylate], the pEC50 in assay [1], in assay [2] and in assay [3] was above 7.00 each time.
On to `C[C@H]1CN(C(=O)OC(C)(C)C)CCN1c1ncnc2c1c(N1CCOCC1)cn2-c1cccc(C#N)c1` [Compound 324, tert-butyl (S)-4-(7-(3-cyanophenyl)-5-morpholino-7H-pyrrolo[2,3-d]pyrimidin-4-yl)-3-methylpiperazine-1-carboxylate], for which the figures for the pEC50 in assay [1] (fluorescent calcium assay), in assay [2] (fluorescent calcium assay) and in assay [3] (fluorescent calcium assay) were 5.70 to 6.30, above 7.00 and above 7.00, respectively.
For `C[C@@H]1CN(c2ncnc3c2c(C(F)(F)F)cn3-c2cccc(C#N)c2)[C@@H](C)CN1C(=O)OC(C)(C)C` [Compound 513, tert-butyl (2R,5S)-4-(7-(3-cyanophenyl)-5-(trifluoromethyl)-7H-pyrrolo[2,3-d]pyrimidin-4-yl)-2,5-dimethylpiperazine-1-carboxylate], the pEC50 in assay [1] is 5.70 to 6.30; in assay [2] it was above 7.00; in assay [3], above 7.00.
Regarding `C[C@H]1CN(C(=O)OC(C)(C)C)CCN1c1ncnc2c1c(C(F)(F)F)cn2-c1cc(F)cc(F)c1` [Compound 495], the pEC50 in assay [1] was 6.30 to 7.00; in assay [2], above 7.00; in assay [3], above 7.00.
